# Results taken from patent US11912701B2, “Protein kinase inhibitors for promoting liver regeneration or reducing or preventing hepatocyte death” (HEPAREGENIX GMBH, priority 2018, dated 2024).
# Legend:
# Format in all cases: biochemical
# MKK4 = target: T1, MKK4 (Homo sapiens, UniProt P45985); test: 33PanQinase enzyme assay, MKK4; conditions: assay 'IC50'; for IC50: read-out: Potency MKK4 (IC50)
# T1 construct: purchased ProQinase GmbH, Freiburg, Germany (33PanQinase Assay Service)
# T1 sequence (P45985 1-399): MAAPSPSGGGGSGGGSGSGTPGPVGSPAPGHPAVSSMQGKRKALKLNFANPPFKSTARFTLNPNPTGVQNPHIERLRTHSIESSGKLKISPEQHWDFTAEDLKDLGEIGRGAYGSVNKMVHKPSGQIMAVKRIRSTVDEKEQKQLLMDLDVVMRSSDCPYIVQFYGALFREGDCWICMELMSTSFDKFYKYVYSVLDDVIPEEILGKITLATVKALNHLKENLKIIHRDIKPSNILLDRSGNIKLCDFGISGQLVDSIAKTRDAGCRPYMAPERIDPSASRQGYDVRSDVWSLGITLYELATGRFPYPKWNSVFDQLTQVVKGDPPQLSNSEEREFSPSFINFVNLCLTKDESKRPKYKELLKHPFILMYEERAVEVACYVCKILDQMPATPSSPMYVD
# Procedure, shortened: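 Inhibition measured as 33Pi transfer to substrate after a 60-min, 30 °C reaction, acid-stopped and scintillation-counted.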
# BRaf = target: T2, BRaf (Homo sapiens, UniProt P15056); test: 33PanQinase enzyme assay, BRaf; conditions: ratio IC50(BRaf)/IC50(MKK4)
# T2 construct: purchased ProQinase GmbH, Freiburg, Germany (33PanQinase Assay Service)
# T2 sequence (P15056 whole entry, species assumed): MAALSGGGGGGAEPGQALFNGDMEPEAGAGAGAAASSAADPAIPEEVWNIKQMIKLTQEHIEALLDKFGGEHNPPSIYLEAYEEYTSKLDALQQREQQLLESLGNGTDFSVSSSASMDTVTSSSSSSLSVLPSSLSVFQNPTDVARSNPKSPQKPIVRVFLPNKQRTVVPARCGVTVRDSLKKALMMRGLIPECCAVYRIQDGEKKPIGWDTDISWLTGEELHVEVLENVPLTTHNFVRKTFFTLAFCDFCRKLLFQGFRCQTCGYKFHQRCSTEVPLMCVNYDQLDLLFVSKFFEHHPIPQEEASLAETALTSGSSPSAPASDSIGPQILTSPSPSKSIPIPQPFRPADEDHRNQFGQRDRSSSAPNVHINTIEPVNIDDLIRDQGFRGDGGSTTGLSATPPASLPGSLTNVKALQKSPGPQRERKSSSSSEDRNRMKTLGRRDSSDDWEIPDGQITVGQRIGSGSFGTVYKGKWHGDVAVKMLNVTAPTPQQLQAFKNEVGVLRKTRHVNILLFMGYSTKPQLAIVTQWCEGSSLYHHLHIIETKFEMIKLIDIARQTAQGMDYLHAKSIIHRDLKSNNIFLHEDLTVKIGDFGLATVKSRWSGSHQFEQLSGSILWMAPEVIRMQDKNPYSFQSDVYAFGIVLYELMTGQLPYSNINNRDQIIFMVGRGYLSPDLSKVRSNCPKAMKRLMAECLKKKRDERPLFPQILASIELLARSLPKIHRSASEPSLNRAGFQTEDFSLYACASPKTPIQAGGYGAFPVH
# Procedure, shortened: (§1)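 33Pi incorporation, read by microplate scintillation counting, measured kinase activity after 60 min at 30 °C. Reactions were quenched with 2% (v/v) H3PO4 and washed with 0.9% NaCl. IC50 derived by least-squares fitting; single doses reported as % residual activity.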
# JNK1 = JNK1 (Homo sapiens, UniProt P45983); test: 33PanQinase enzyme assay, JNK1; set-up: purchased ProQinase GmbH, Freiburg, Germany (33PanQinase Assay Service); conditions: ratio IC50(JNK1)/IC50(MKK4)
# Chain of JNK1 (P45983 whole entry): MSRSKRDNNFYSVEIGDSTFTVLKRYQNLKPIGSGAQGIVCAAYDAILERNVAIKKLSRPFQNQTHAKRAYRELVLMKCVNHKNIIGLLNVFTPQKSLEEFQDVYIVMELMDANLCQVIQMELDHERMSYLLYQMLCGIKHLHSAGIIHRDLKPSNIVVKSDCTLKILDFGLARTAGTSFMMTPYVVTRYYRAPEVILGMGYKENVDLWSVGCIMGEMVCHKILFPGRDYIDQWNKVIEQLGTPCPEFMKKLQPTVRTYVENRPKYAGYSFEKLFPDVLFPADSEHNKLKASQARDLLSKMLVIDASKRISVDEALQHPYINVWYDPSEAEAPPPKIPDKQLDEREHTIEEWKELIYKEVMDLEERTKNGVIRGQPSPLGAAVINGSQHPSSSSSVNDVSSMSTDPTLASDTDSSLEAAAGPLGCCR
# Procedure, shortened: as §1
# MKK7 = target: T3, MKK7 (Homo sapiens, UniProt O14733); test: 33PanQinase enzyme assay, MKK7; set-up: purchased ProQinase GmbH, Freiburg, Germany (33PanQinase Assay Service); conditions: ratio IC50(MKK7)/IC50(MKK4)
# T3 sequence (O14733 1-419): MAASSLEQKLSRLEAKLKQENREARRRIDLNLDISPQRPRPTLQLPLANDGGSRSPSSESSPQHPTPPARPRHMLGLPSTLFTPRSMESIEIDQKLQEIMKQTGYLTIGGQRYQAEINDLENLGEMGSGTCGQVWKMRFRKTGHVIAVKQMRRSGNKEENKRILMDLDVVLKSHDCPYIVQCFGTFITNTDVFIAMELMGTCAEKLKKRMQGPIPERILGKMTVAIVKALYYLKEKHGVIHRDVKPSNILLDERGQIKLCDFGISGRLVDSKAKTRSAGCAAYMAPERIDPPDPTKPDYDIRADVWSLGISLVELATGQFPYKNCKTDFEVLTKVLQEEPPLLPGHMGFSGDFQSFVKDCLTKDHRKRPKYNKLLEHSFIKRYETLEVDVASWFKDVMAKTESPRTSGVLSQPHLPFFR
# Procedure, shortened: as §1
Compound,IC50 (MKK4) [nM],"Selectivity Braf, IC50(off-target)/IC50(MKK4) (BRaf)","Selectivity JNK1, IC50(off-target)/IC50(MKK4) (JNK1)","Selectivity IVIKK7, IC50(off-target)/IC50(MKK4) (MKK7)",Potency MKK4 (IC50) (MKK4)
"CCCS(=O)(=O)Nc1c(F)ccc(C(=O)c2c[nH]c3ncc(-c4ccnnc4)cc23)c1F [Example 144, N-(2,6-difluoro-3-(5-(pyridazin-4-yl)-1H-pyrrolo[2,3-b]pyridine-3-carbonyl)phenyl)propane-1-sulfonamide]",< 100,++ (100 ≥ IC50(off-target)/IC50(MKK4) > 10),+++ (IC50(off-target)/IC50(MKK4) > 100),+++ (IC50(off-target)/IC50(MKK4) > 100),–
"Cc1ncc(-c2cnc3[nH]cc(C(=O)c4ccc(F)c(NS(=O)(=O)CCC(F)(F)F)c4F)c3c2)cn1 [Example 147, N-(2,6-difluoro-3-(5-(2-methylpyrimidin-5-yl)-1H-pyrrolo[2,3-b]pyridine-3-carbonyl)phenyl)-3,3,3-trifluoropropane-1-sulfonamide]",< 100,++ (100 ≥ IC50(off-target)/IC50(MKK4) > 10),+++ (IC50(off-target)/IC50(MKK4) > 100),+++ (IC50(off-target)/IC50(MKK4) > 100),–
"CS(=O)(=O)Nc1c(F)ccc(C(=O)c2c[nH]c3ncc(-c4ccc(Cl)cc4)cc23)c1F [Example 149, N-(3-(5-(4-chlorophenyl)-1H-pyrrolo[2,3-b]pyridine-3-carbonyl)-2,6-difluorophenyl)methanesulfonamide]",100 to 1000,++ (100 ≥ IC50(off-target)/IC50(MKK4) > 10),++ (100 ≥ IC50(off-target)/IC50(MKK4) > 10),+++ (IC50(off-target)/IC50(MKK4) > 100),–
"O=C(c1ccc(F)c(NS(=O)(=O)CCC(F)(F)F)c1F)c1c[nH]c2ncc(-c3ccc(Cl)cc3)cc12 [Example 150, N-(3-(5-(4-chlorophenyl)-1H-pyrrolo[2,3-b]pyridine-3-carbonyl)-2,6-difluorophenyl)-3,3,3-trifluoropropane-1-sulfonamide]",< 100,+++ (IC50(off-target)/IC50(MKK4) > 100),+++ (IC50(off-target)/IC50(MKK4) > 100),+++ (IC50(off-target)/IC50(MKK4) > 100),–
"CCCS(=O)(=O)Nc1c(F)ccc(C(=O)c2c[nH]c3ncc(-c4ccc(S(C)(=N)=O)cc4)cc23)c1F (centres unmarked) [Example 151, N-(2,6-difluoro-3-(5-(4-(S-methylsulfonimidoyl)phenyl)-1H-pyrrolo[2,3-b]pyridine-3-carbonyl)phenyl)propane-1-sulfonamide]",100 to 1000,++ (100 ≥ IC50(off-target)/IC50(MKK4) > 10),++ (100 ≥ IC50(off-target)/IC50(MKK4) > 10),+++ (IC50(off-target)/IC50(MKK4) > 100),–
"CCCS(=O)(=O)Nc1c(F)ccc(C(=O)c2c[nH]c3ncc(-c4ccc(O)cc4Cl)cc23)c1F [Example 152, N-(3-(5-(2-chloro-4-hydroxyphenyl)-1H-pyrrolo[2,3-b]pyridine-3-carbonyl)-2,6-difluorophenyl)propane-1-sulfonamide]",< 100,+++ (IC50(off-target)/IC50(MKK4) > 100),++ (100 ≥ IC50(off-target)/IC50(MKK4) > 10),+++ (IC50(off-target)/IC50(MKK4) > 100),–
"CCCS(=O)(=O)Nc1c(F)ccc(C(=O)c2c[nH]c3ncc(-c4ccc(OCC(O)CO)cc4Cl)cc23)c1F (centres unmarked) [Example 153, N-(3-(5-(2-chloro-4-(2,3-dihydroxypropoxy)phenyl)-1H-pyrrolo[2,3-b]pyridine-3-carbonyl)-2,6-difluorophenyl)propane-1-sulfonamide]",< 100,+++ (IC50(off-target)/IC50(MKK4) > 100),++ (100 ≥ IC50(off-target)/IC50(MKK4) > 10),+++ (IC50(off-target)/IC50(MKK4) > 100),–
"CCCS(=O)(=O)Nc1c(F)ccc(C(=O)c2c[nH]c3ncc(-c4ccc(OCC(O)CO)cc4)cc23)c1F (centres unmarked) [Example 154, N-(3-(5-(4-(2,3-dihydroxypropoxy)phenyl)-1H-pyrrolo[2,3-b]pyridine-3-carbonyl)-2,6-difluorophenyl)propane-1-sulfonamide]",< 100,++ (100 ≥ IC50(off-target)/IC50(MKK4) > 10),++ (100 ≥ IC50(off-target)/IC50(MKK4) > 10),+++ (IC50(off-target)/IC50(MKK4) > 100),–
"CCCS(=O)(=O)Nc1c(F)ccc(C(=O)c2c[nH]c3ncc(-c4ccc(S(F)(F)(F)(F)F)cc4)cc23)c1F [Example 155, N-(2,6-difluoro-3-(5-(4-(pentafluoro-l6-sulfaneyl)phenyl)-1H-pyrrolo[2,3-b]pyridine-3-carbonyl)phenyl)propane-1-sulfonamide]",–,+++ (IC50(off-target)/IC50(MKK4) > 100),++ (100 ≥ IC50(off-target)/IC50(MKK4) > 10),+++ (IC50(off-target)/IC50(MKK4) > 100),++·+
"CCCS(=O)(=O)Nc1c(F)ccc(C(=O)c2c[nH]c3ncc(-c4ccc(S(C)(=N)=O)nc4)cc23)c1F (centres unmarked) [Example 164, N-(2,6-difluoro-3-(5-(6-(S-methylsulfonimidoyl)pyridin-3-yl)-1H-pyrrolo[2,3-b]pyridine-3-carbonyl)phenyl)propane-1-sulfonamide]",< 100,++ (100 ≥ IC50(off-target)/IC50(MKK4) > 10),++ (100 ≥ IC50(off-target)/IC50(MKK4) > 10),+++ (IC50(off-target)/IC50(MKK4) > 100),–
"CCCS(=O)(=O)Nc1c(F)ccc(C(=O)c2c[nH]c3ncc(-c4ccc(C)nc4C)cc23)c1F [Example 165, N-(3-(5-(2,6-dimethylpyridin-3-yl)-1H-pyrrolo[2,3-b]pyridine-3-carbonyl)-2,6-difluorophenyl)propane-1-sulfonamide]",< 100,+++ (IC50(off-target)/IC50(MKK4) > 100),+++ (IC50(off-target)/IC50(MKK4) > 100),+++ (IC50(off-target)/IC50(MKK4) > 100),–
"CCCS(=O)(=O)Nc1c(F)ccc(C(=O)c2c[nH]c3ncc(-c4ccc(C)nc4Cl)cc23)c1F [Example 166, N-(3-(5-(2-chloro-6-methylpyridin-3-yl)-1H-pyrrolo[2,3-b]pyridine-3-carbonyl)-2,6-difluorophenyl)propane-1-sulfonamide]",< 100,+++ (IC50(off-target)/IC50(MKK4) > 100),+++ (IC50(off-target)/IC50(MKK4) > 100),+++ (IC50(off-target)/IC50(MKK4) > 100),–
"CCCS(=O)(=O)Nc1c(F)ccc(C(=O)c2c[nH]c3ncc(-c4cnc(C5CC5)cc4C)cc23)c1F [Example 167, N-(3-(5-(6-cyclopropyl-4-methylpyridin-3-yl)-1H-pyrrolo[2,3-b]pyridine-3-carbonyl)-2,6-difluorophenyl)propane-1-sulfonamide]",< 100,+++ (IC50(off-target)/IC50(MKK4) > 100),+++ (IC50(off-target)/IC50(MKK4) > 100),+++ (IC50(off-target)/IC50(MKK4) > 100),–
"CCCS(=O)(=O)Nc1c(F)ccc(C(=O)c2c[nH]c3ncc(-c4c(C)cc(C)nc4C)cc23)c1F [Example 168, N-(2,6-difluoro-3-(5-(2,4,6-trimethylpyridin-3-yl)-1H-pyrrolo[2,3-b]pyridine-3-carbonyl)phenyl)propane-1-sulfonamide]",100 to 1000,+++ (IC50(off-target)/IC50(MKK4) > 100),++ (100 ≥ IC50(off-target)/IC50(MKK4) > 10),+++ (IC50(off-target)/IC50(MKK4) > 100),–
